For experiment [1], the system named is Staphylococcus aureus. Kind of experiment: Antibacterial activity against Staphylococcus aureus RN4220 overexpressing MsrA after 24 hrs. In kind it is functional. The settings on record: RN4220, 24 h.
The test system of experiment [2] is Staphylococcus aureus. The experiment in a line: Antibacterial activity against Staphylococcus aureus EMRSA-15 after 24 hrs. To be noted: EMRSA-15, 24 h. In kind it is functional.
For experiment [3], the system named is Staphylococcus aureus. The experiment in a line: Antibacterial activity against Staphylococcus aureus ATCC 25923 after 24 hrs. The experiment is classed as functional. The settings on record: ATCC 25923, 24 h.
The subject of experiment [4] is Staphylococcus aureus. The experiment in a line: Antibacterial activity against Staphylococcus aureus 1199B overexpressing NorA after 24 hrs. The experiment is classed as functional.
Experiment [5] concerns Staphylococcus aureus. Kind of experiment: Antibacterial activity against Staphylococcus aureus ATCC 25923 at 128 ug/ml after 24 hrs. In kind it is functional, organism-based.
Experiment [6] deals with Staphylococcus aureus. The experiment in a line: Antibacterial activity against Staphylococcus aureus XU-212 overexpressing TetK, mecA at 128 ug/ml after 24 hrs. The experiment is classed as functional, organism-based.
The test system of experiment [7] is Staphylococcus aureus. Kind of experiment: Antibacterial activity against Staphylococcus aureus 1199B overexpressing NorA at 128 ug/ml after 24 hrs. The experiment is classed as functional, organism-based.
The test system of experiment [8] is Mycolicibacterium phlei. Kind of experiment: Antibacterial activity against Mycobacterium phlei after 72 hrs. In kind it is functional.
Experiment [9] concerns Mycolicibacterium smegmatis. The experiment in a line: Antibacterial activity against Mycobacterium smegmatis after 72 hrs. In kind it is functional.
For experiment [10], the system named is Staphylococcus aureus. The experiment in a line: Antibacterial activity against Staphylococcus aureus RN4220 overexpressing MsrA at 128 ug/ml after 24 hrs. In kind it is functional, organism-based.
In experiment [11] the test system is Mycolicibacterium fortuitum. The experiment in a line: Antibacterial activity against Mycobacterium fortuitum after 72 hrs. In kind it is functional.
For experiment [12], the system named is Staphylococcus aureus. The experiment in a line: Antibacterial activity against Staphylococcus aureus EMRSA-15 at 128 ug/ml after 24 hrs. In kind it is functional, organism-based.
Experiment [13] deals with Staphylococcus aureus. Kind of experiment: Antibacterial activity against Staphylococcus aureus XU-212 overexpressing TetK, mecA after 24 hrs. The experiment is classed as functional. To be noted: XU-212, 24 h.

≈ marks a conversion by molar mass, not a printed value. Calls of active or inactive are those of the source. The rule behind the calls is not given here.

Usually MIC stands for the lowest concentration that inhibits growth of the organism.

The compound `CC[C@H]1OC(=O)[C@H](C)[C@@H](O[C@H]2C[C@@](C)(OC)[C@@H](O)[C@H](C)O2)[C@H](C)[C@@H](O[C@@H]2O[C@H](C)C[C@H](N(C)C)[C@H]2O)[C@](C)(O)C[C@@H](C)C(=O)[C@H](C)[C@@H](O)[C@]1(C)O` [ERYTHROMYCIN] registered an MIC in [1] of 128 mg/L (≈ 174 µM).

`CCn1cc(C(=O)O)c(=O)c2cc(F)c(N3CCNCC3)cc21` [NORFLOXACIN]: the MIC in experiment [2] is 2 mg/L (≈ 6.26 µM); in [3], 0.5 mg/L (≈ 1.57 µM); in experiment [4], 32 mg/L (≈ 100 µM).

Take `C=C[C@@]1(C)C[C@H](O)[C@@H]2[C@@]3(C)[C@H](O)CCC(C)(C)[C@@H]3CC[C@@]2(C)O1`: the MIC result in experiment [5], in experiment [6], in experiment [7], in experiment [10] and in [12] was “inactive” throughout. In addition, the minimal inhibitory concentration (MIC) in experiment [8], in [9] and in [11] was 128 mg/L (≈ 397 µM) throughout.

Turning to `CC[C@@H](CO)NCCN[C@@H](CC)CO` [ETHAMBUTOL], the minimum inhibitory concentration (MIC) in experiment [8] was 2 mg/L (≈ 9.79 µM); in experiment [9], 0.5 mg/L (≈ 2.45 µM); in [11], 4 mg/L (≈ 19.6 µM).

Take `CC1(C)CCC[C@]2(C)[C@H]3CC[C@](C)(C4CO4)C=C3C(=O)C[C@@H]12` (relative stereo): the MIC result in experiment [5], in experiment [6], in experiment [7], in [10] and in [12] was “inactive” throughout. Also, the minimal inhibitory concentration (MIC) was 64 mg/L (≈ 212 µM) in experiment [8], 128 mg/L (≈ 423 µM) in experiment [9] and 128 mg/L (≈ 423 µM) in experiment [11].

On to `CN(C)[C@@H]1C(O)=C(C(N)=O)C(=O)[C@@]2(O)C(O)=C3C(=O)c4c(O)cccc4[C@@](C)(O)[C@H]3C[C@@H]12` [TETRACYCLINE], for which the MIC in experiment [13] was determined as 128 mg/L (≈ 288 µM).

`CC1(C)CCC[C@]2(C)[C@H]3CC[C@](C)(C4CO4)C=C3[C@H](O)C[C@@H]12` (relative stereo): the MIC in experiment [2] was 32 mg/L (≈ 105 µM); in experiment [3], 32 mg/L (≈ 105 µM); in experiment [13], 32 mg/L (≈ 105 µM); in [4], 32 mg/L (≈ 105 µM); in [8], 8 mg/L (≈ 26.3 µM); in experiment [9], 16 mg/L (≈ 52.5 µM). The MIC in experiment [11] turned out to be 16 mg/L (≈ 52.5 µM); in experiment [1], 32 mg/L (≈ 105 µM).

The values are drawn from ChEMBL document CHEMBL1153024, “Antibacterial diterpenes from Plectranthus ernstii” (2009).
